Data reported in patent publication US20230312587A1, “PTERIDINONE COMPOUNDS AND USES THEREOF” (Vertex Pharmaceutical Incorporated, priority 2018, published 2023).
Like-named read-outs stand apart in the source and are kept apart here.

How the values were obtained:
Format in all cases: cell-based
HepG2 WFS1 KO = test: In vitro cell viability (CellTiter-Glo), HepG2 WFS1 KO; conditions: HepG2 WFS1 knockout, 96 hours, read-out: HepG2 WFS1 KO viability
Source text: A double cleavage strategy was employed to remove large fragments from the WFS1 locus. Suitable target sites in WFS1 exon 8 were first selected using CRISPR design software to rank suitable target sites and computationally predict off-target sites for each intended target. Six top guide RNA sequences are identified and screened for activity using the Surveyor Mutation Detection Kit (Integrated DNA Technologies). Then, the best 2 guide RNAs were cloned into GeneArt OFP CRISPR nuclease vectors (Thermofisher, Cat #A21174) separately and co-transfected into HepG2 cells using nucleofection (4D Nucleofector X, Lonza). Cells were sorted by FACS 48 hrs later to enrich for the OFP positive cell population. The OFP positive cell population were plated into 96-well plates at 0.5-5 cells/well to isolate clonal cell lines. After allowing cells to expand for 2-3 weeks, plates were inspected for presence of colonies. When colonies became more than 70% confluent, they were dissociated with trypsin and were further expanded. Cell clones with homozygous double cleavage of WFS1 exon 8 were detected with PCR and confirmed with DNA sequencing.
HEK293 cells containing empty pCLPCx vector (HEK293 empty), HEK293 cells stably over-expression WFS1 (HEK293 WFS1), HepG2, and HepG2 cells where WFS1 was depleted via CRISPR/Cas9 (HepG2 WFS1 KO) cells were plated into 96-well black plates (Corning, product #3904) in 100 microliters of complete DMEM cell culture media [DMEM (Life Technologies, product #11960-051) media supplemented with 10% FBS (Hyclone, catalog #SH30071.03), antimycotic/antibiotic (Life Technologies, product #15240-062), and Glutamax (Life Technologies, product #35050-061)] at 1,000 (HEK293) or 5,000 (HepG2) cells per well. Cells were allowed to attach and grow overnight, after which compounds are added at various concentrations. Cell viability was assessed 96 hrs after compound addition with CellTiter-Glo reagent (Promega, catalog #G7570) according to manufacturer's protocol and measurement on a Pherastar luminescence plate reader (BMG Labtech).
To determine the effect of WFS1 depletion on compound mediated inhibition of cell viability, parental HepG2 cells and HepG2 cells where WFS1 was deleted by CRISPR/Cas9 were exposed to increasing concentrations of either Compound 136 or Compound 253 for 96 hours after which time viability was determined using Cell Titer Glo reagent (Promega). […] The IC50s for the viability of both the HepG2 parental and WFS1 knockout cells are summarized in Table 47: A<0.5 μM; 0.5 μM≤<2.0 μM; 2.0 μM≤C<10.0 μM; D≥[…].

[1] = test system: β-catenin-TCF-mediated reporter transcription activity in Colo 205 cells; test: Colo 205 reporter assay (TCF/LEF luciferase); conditions: five hours after addition of compound
Procedure, shortened: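 Luciferase signal from a TCF/LEF-driven reporter, stably integrated in Colo 205 colon cancer cells, was measured 5 h after compound addition.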

Colo-205 cells = test: Calcium flux assay (FLIPR Calcium 5); conditions: FLIPR Calcium 5, measured over 36 minutes
Method: Compounds described herein induced ER stress by causing intracellular calcium flux. Calcium flux was measured in Colo-205 cells using the FLTPR® Calcium 5 Assay Kit according to manufacter's protocol (Molecular Devices, Cat. #R8186) on a FLIPR3 system (Molecular Devices). Calcium flux is measured over 36 minutes. The Colo-205 calcium flux assay data are summarized in Table 47: A<0.6 μM; 0.6 μM≤B<2.0 μM; 2.0 μM≤C<10.0 μM; D≥10.0 μM.

[2] = Homo sapiens, COLO 205, 5 h, Colo 205 TCF/LEF luciferase reporter, read-out: TCF reporter Colo205 IC50

SMILES | IC50 (HepG2 WFS1 KO; Homo sapiens) | IC50 [1, 2] | EC50 (Colo-205 cells; Homo sapiens, COLO 205, 0.6 h) | IC50 (HepG2 WFS1 KO) | IC50 ([1]; Colo 205 TCF/LEF luciferase reporter, read-out: TCF reporter Colo205 IC50) | EC50 (Colo-205 cells) | IC50 ([1]; Homo sapiens, COLO 205, 5 h, Colo 205 cells with stably transfected TCF/LEF luciferase reporter, read-out: TCF reporter Colo205)
Cc1nc(NCc2cnn(CCC3CCOCC3)c2)nc2c1NC(=O)[C@H](C)N2C [Compound 115, (7S)-4,7,8-trimethyl-2-(((1-(2-(tetrahydro-2H-pyran-4-yl)ethyl)-1H-pyrazol-4-yl)methyl)amino)-7,8-dihydropteridin-6(5H)-one] | ≥ 10000 nM | 1000 to 5000 nM | 2000 to 10000 nM |  |  |  | 
Cc1nc(NCc2cnn(C3CCN(C(=O)c4ccc(F)cc4)CC3)c2)nc2c1NC(=O)[C@H](C)N2C [Compound 125, (7S)-2-(((1-(1-(4-Fluorobenzoyl)piperidin-4-yl)-1H-pyrazol-4-yl)methyl)amino)-4,7,8-trimethyl-7,8-dihydropteridin-6(5H)-one] | ≥ 10000 nM | 1000 to 5000 nM | 2000 to 10000 nM |  |  |  | 
Cc1nc(NCc2cnn(CCc3ccc(F)cc3)c2)nc2c1N(C)C(=O)[C@H](C)N2C [Compound 8, (7S)-2-(((1-(4-fluorophenethyl)-1H-pyrazol-4-yl)methyl)amino)-4,5,7,8-tetramethyl-7,8-dihydropteridin-6(5H)-one] | ≥ 10000 nM | 300 to 1000 nM | 2000 to 10000 nM |  |  |  | 
Cc1nc(NCc2cnn(CC3CCC3)c2)nc2c1N(C)C(=O)[C@H](C)N2C [Compound 7, (7S)-2-(((1-(cyclobutylmethyl)-1H-pyrazol-4-yl)methyl)amino)-4,5,7,8-tetramethyl-7,8-dihydropteridin-6(5H)-one] | ≥ 10000 nM | 300 to 1000 nM | 600 to 2000 nM |  |  |  | 
Cc1nc(NCc2cnn(Cc3ccc(F)nc3)c2)nc2c1NC(=O)[C@H](C1CC1)N2C [Compound 421, (7S)-7-cyclopropyl-2-(((1-((6-fluoropyridin-3-yl)methyl)-1H-pyrazol-4-yl)methyl)amino)-4,8-dimethyl-7,8-dihydropteridin-6(511)-one] |  |  |  | ≥ 10000 nM | < 300 nM | 600 to 2000 nM | 
Cc1cnc(C(F)(F)F)nc1-n1cc(CNc2ncc3c(n2)N(C)[C@@H](C)C(=O)N3)cn1 [Compound 164, (7S)-7,8-dimethyl-2-(((1-(5-methyl-2-(trifluoromethyl)pyrimidin-4-yl)-1H-pyrazol-4-yl)methyl)amino)-7,8-dihydropteridin-6(5H)-one] | ≥ 10000 nM | 1000 to 5000 nM | 2000 to 10000 nM |  |  |  | 
Cc1nc(NCc2cnn(Cc3cnc(Cl)c(F)c3)c2)nc2c1NC(=O)[C@H](C(C)C)N2C [Compound 424, (7S)-2-(((1-((6-chloro-5-fluoropyridin-3-yl)methyl)-1H-pyrazol-4-yl)methyl)amino)-7-isopropyl-4,8-dimethyl-7,8-dihydropteridin-6(5H)-one] | ≥ 10000 nM | < 300 nM | 600 to 2000 nM |  |  |  | 
Cc1nc(NCc2cnn(Cc3cncc(F)c3)c2)nc2c1NC(=O)[C@H](C(C)C)N2C [Compound 415, (7S)-2-(((1-((5-fluoropyridin-3-yl)methyl)-1H-pyrazol-4-yl)methyl)amino)-7-isopropyl-4,8-dimethyl-7,8-dihydropteridin-6(5H)-one] | ≥ 10000 nM | < 300 nM | 600 to 2000 nM |  |  |  | 
Cc1nc(NCc2cnn(Cc3ccc(C(F)(F)F)nc3[C@@H](C)O)c2)nc2c1NC(=O)[C@H](C)N2C (single isomer, unassigned) [Compound 420] | ≥ 10000 nM | < 300 nM | 2000 to 10000 nM |  |  |  | 
Cc1ncc(Cn2cc(CNc3nc(C)c4c(n3)N(C)[C@@H](C)C(=O)N4)cn2)cn1 [Compound 163, (7S)-4,7,8-trimethyl-2-(((1-((2-methylpyrimidin-5-yl)methyl)-1H-pyrazol-4-yl)methyl)amino)-7,8-dihydropteridin-6(5H)-one] | ≥ 10000 nM | 1000 to 5000 nM | 2000 to 10000 nM |  |  |  | 
Cc1cc(F)ncc1Cn1cc(CNc2nc(C)c3c(n2)N(C)[C@@H](C(C)C)C(=O)N3)cn1 [Compound 423, (7S)-2-(((1-((6-fluoro-4-methylpyridin-3-yl)methyl)-1H-pyrazol-4-yl)methyl)amino)-7-isopropyl-4,8-dimethyl-7,8-dihydropteridin-6(5H)-one] | ≥ 10000 nM | < 300 nM | 600 to 2000 nM |  |  |  | 
Cc1nc(NCc2cnn(Cc3ccc(C(F)(F)F)nc3C(C)(C)O)c2)nc2c1NC(=O)[C@H](C)N2C [Compound 416, (7S)-2-(((1-((2-(2-hydroxypropan-2-yl)-6-(trifluoromethyl)pyridin-3-yl)methyl)-1H-pyrazol-4-yl)methyl)amino)-4,7,8-trimethyl-7,8-dihydropteridin-6(5H)-one] | ≥ 10000 nM | < 300 nM | 600 to 2000 nM |  |  |  | 
Cc1nn(C)cc1Cn1cc(CNc2nc(C)c3c(n2)N(C)[C@@H](C)C(=O)N3)cn1 [Compound 139, (7S)-2-(((1-((1,3-dimethyl-1H-pyrazol-4-yl)methyl)-1H-pyrazol-4-yl)methyl)amino)-4,7,8-trimethyl-7,8-dihydropteridin-6(5H)-one] | ≥ 10000 nM | 1000 to 5000 nM | 2000 to 10000 nM |  |  |  | 
Cc1nc(NCc2cnn(CCc3ccc(F)cc3)c2)nc2c1NC(=O)[C@H](C)N2C [Compound 6, (7S)-2-(((1-(4-fluorophenethyl)-1H-pyrazol-4-yl)methyl)amino)-4,7,8-trimethyl-7,8-dihydropteridin-6(5H)-one] | ≥ 10000 nM | 300 to 1000 nM | 600 to 2000 nM |  |  |  | 
Cc1nc(NCc2cn(Cc3ccc(C(F)(F)F)nc3)cn2)nc2c1NC(=O)[C@H](C)N2C [Compound 428, (S)-4,7,8-trimethyl-2-(((1-((6-(trifluoromethyl)pyridin-3-yl)methyl)-1H-imidazol-4-yl)methyl)amino)-7,8-dihydropteridin-6(5H)-one] | ≥ 10000 nM | ≥ 5000 nM | ≥ 10000 nM |  |  |  | 
Cc1nc(N[C@H]2C[C@@H](Oc3cc(F)c(F)c(F)c3)C2)nc2c1NC(=O)[C@H](C)N2C [Compound 247, (7S)-4,7,8-trimethyl-2-((cis-3-(3,4,5-trifluorophenoxy)cyclobutyl)amino)-7,8-dihydropteridin-6(5H)-one] | ≥ 10000 nM | 1000 to 5000 nM | 2000 to 10000 nM |  |  |  | 
Cc1nc(NCc2cnn(Cc3ccc(Cl)nc3)c2)nc2c1NC(=O)[C@H](C(C)C)N2C [Compound 409, (7S)-2-(((1-((6-chloropyridin-3-yl)methyl)-1H-pyrazol-4-yl)methyl)amino)-7-isopropyl-4,8-dimethyl-7,8-dihydropteridin-6(5H)-one] | ≥ 10000 nM |  | 600 to 2000 nM |  |  |  | < 300 nM
Cc1ncc(Cn2cc(CNc3nc(C)c4c(n3)N(C)[C@@H](C(C)C)C(=O)N4)cn2)cc1F [Compound 425, (7S)-2-(((1-((5-fluoro-6-methylpyridin-3-yl)methyl)-1H-pyrazol-4-yl)methyl)amino)-7-isopropyl-4,8-dimethyl-7,8-dihydropteridin-6(5H)-one] | ≥ 10000 nM | < 300 nM | 600 to 2000 nM |  |  |  | 
CC[C@H]1C(=O)Nc2cnc(NCc3cnn(Cc4ccc(F)cc4)c3)nc2N1C [Compound 9, (7S)-7-ethyl-2-(((1-(4-fluorobenzyl)-1H-pyrazol-4-yl)methyl)amino)-8-methyl-7,8-dihydropteridin-6(5H)-one] | ≥ 10000 nM | < 300 nM | 600 to 2000 nM |  |  |  | 
Cc1nc(NCc2cn(Cc3ccc(C(F)(F)F)nc3)nc2Br)nc2c1NC(=O)[C@H](C)N2C [Compound 412, (S)-2-(((3-bromo-1-((6-(trifluoromethyl)pyridin-3-yl)methyl)-1H-pyrazol-4-yl)methyl)amino)-4,7,8-trimethyl-7,8-dihydropteridin-6(5H)-one] | ≥ 10000 nM | < 300 nM | 600 to 2000 nM |  |  |  | 
